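Protocol summary: plate cells (96-well), add compound at 5 concentrations, incubate 48 h, interpolate endpoints linearly. TGI marks complete inhibition of growth.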
How the values were obtained:
Experiment in all cases: DTP human tumour cell line panel, 48 h
786-0 renal = system: 786-0 renal
A549 NSCLC = system: A549 NSCLC
ACHN renal = system: ACHN renal
CAKI-1 renal = system: CAKI-1 renal
CCRF-CEM leukemia = system: CCRF-CEM leukemia
COLO 205 colon = system: COLO 205 colon
DLD-1 colon = system: DLD-1 colon
DMS 114 small cell lung = system: DMS 114 small cell lung
DMS 273 small cell lung = system: DMS 273 small cell lung
EKVX NSCLC = system: EKVX NSCLC
HCC-2998 colon = system: HCC-2998 colon
HCT-116 colon = system: HCT-116 colon
HCT-15 colon = system: HCT-15 colon
HL-60(TB) leukemia = system: HL-60(TB) leukemia
HOP-62 NSCLC = system: HOP-62 NSCLC
IGROV1 ovarian = system: IGROV1 ovarian
K-562 leukemia = system: K-562 leukemia
KM12 colon = system: KM12 colon
KM20L2 colon = system: KM20L2 colon
LOX IMVI melanoma = system: LOX IMVI melanoma
LXFL 529 NSCLC = system: LXFL 529 NSCLC
M14 melanoma = system: M14 melanoma
M19-MEL melanoma = system: M19-MEL melanoma
MALME-3M melanoma = system: MALME-3M melanoma
MOLT-4 leukemia = system: MOLT-4 leukemia
NCI-H226 lung = system: NCI-H226 lung
NCI-H23 lung = system: NCI-H23 lung
NCI-H460 lung = system: NCI-H460 lung
NCI-H522 lung = system: NCI-H522 lung
OVCAR-3 ovarian = system: OVCAR-3 ovarian
OVCAR-4 ovarian = system: OVCAR-4 ovarian
OVCAR-5 ovarian = system: OVCAR-5 ovarian
OVCAR-8 ovarian = system: OVCAR-8 ovarian
RXF 393 renal = system: RXF 393 renal
RXF-631 renal = system: RXF-631 renal
SF-268 CNS = system: SF-268 CNS
SF-295 CNS = system: SF-295 CNS
SF-539 CNS = system: SF-539 CNS
SK-MEL-2 melanoma = system: SK-MEL-2 melanoma
SK-MEL-28 melanoma = system: SK-MEL-28 melanoma
SK-OV-3 ovarian = system: SK-OV-3 ovarian
SN12C renal = system: SN12C renal
SNB-19 CNS = system: SNB-19 CNS
SNB-78 CNS = system: SNB-78 CNS
SR leukemia = system: SR leukemia
SW-620 colon = system: SW-620 colon
TK-10 renal = system: TK-10 renal
U251 CNS = system: U251 CNS
UACC-257 melanoma = system: UACC-257 melanoma
UACC-62 melanoma = system: UACC-62 melanoma
UO-31 renal = system: UO-31 renal
XF 498 CNS = system: XF 498 CNS
A498 renal = system: A498 renal
HOP-18 NSCLC = system: HOP-18 NSCLC
HOP-92 NSCLC = system: HOP-92 NSCLC
HT29 colon = system: HT29 colon
RPMI-8226 leukemia = system: RPMI-8226 leukemia
SK-MEL-5 melanoma = system: SK-MEL-5 melanoma
SNB-75 CNS = system: SNB-75 CNS

Work on `Cc1nc(-n2nc(-c3ccccc3)cc2-c2ccccc2)sc1C(=O)/C=C/c1ccc(Cl)c(Cl)c1` yielded a TGI (786-0 renal) of 33.5 µM, a TGI (A549 NSCLC) of over 100 µM and a TGI (ACHN renal) of over 100 µM. The TGI (CAKI-1 renal) was 78.7 µM, the TGI (CCRF-CEM leukemia) was 69.7 µM and the TGI (COLO 205 colon) was over 100 µM. It also gave a TGI (DLD-1 colon) of 48.2 µM, a TGI (DMS 114 small cell lung) of over 100 µM and a TGI (DMS 273 small cell lung) of over 100 µM. For the same molecule, the TGI (EKVX NSCLC) was over 100 µM, the TGI (HCC-2998 colon) was over 100 µM and the TGI (HCT-116 colon) was over 100 µM. For the same molecule, the TGI (HCT-15 colon) was 39.9 µM, the TGI (HL-60(TB) leukemia) was 36.7 µM and the TGI (HOP-62 NSCLC) was over 100 µM. For the same molecule, the TGI (IGROV1 ovarian) was 30 µM, the TGI (K-562 leukemia) was 63.7 µM and the TGI (KM12 colon) was 20.8 µM. It also gave a TGI (KM20L2 colon) of 70.3 µM, a TGI (LOX IMVI melanoma) of 27.5 µM and a TGI (LXFL 529 NSCLC) of 32 µM. It also gave a TGI (M14 melanoma) of 40.5 µM, a TGI (M19-MEL melanoma) of over 100 µM and a TGI (MALME-3M melanoma) of over 100 µM. The TGI (MOLT-4 leukemia) was 52.5 µM, the TGI (NCI-H226 lung) was 87.6 µM and the TGI (NCI-H23 lung) was over 100 µM. It also gave a TGI (NCI-H460 lung) of over 100 µM, a TGI (NCI-H522 lung) of 21.6 µM and a TGI (OVCAR-3 ovarian) of 54.2 µM. For the same molecule, the TGI (OVCAR-4 ovarian) was 81.3 µM, the TGI (OVCAR-5 ovarian) was 66.2 µM and the TGI (OVCAR-8 ovarian) was 31.3 µM. The TGI (RXF 393 renal) was over 100 µM, the TGI (RXF-631 renal) was over 100 µM and the TGI (SF-268 CNS) was over 100 µM. It also gave a TGI (SF-295 CNS) of 35.7 µM, a TGI (SF-539 CNS) of 44.5 µM and a TGI (SK-MEL-2 melanoma) of over 100 µM. The TGI (SK-MEL-28 melanoma) was over 100 µM, the TGI (SK-OV-3 ovarian) was over 100 µM and the TGI (SN12C renal) was 44.3 µM. For the same molecule, the TGI (SNB-19 CNS) was 42.1 µM, the TGI (SNB-78 CNS) was 73.6 µM and the TGI (SR leukemia) was 76.8 µM. For the same molecule, the TGI (SW-620 colon) was 57.3 µM, the TGI (TK-10 renal) was over 100 µM and the TGI (U251 CNS) was 23.8 µM. The TGI (UACC-257 melanoma) was over 100 µM, the TGI (UACC-62 melanoma) was 19.9 µM and the TGI (UO-31 renal) was 23.9 µM. For the same molecule, the TGI (XF 498 CNS) was 30.8 µM.

With `COc1cc(/C=C/c2ccc(Br)cc2)cc(OC)c1OC` the TGI (786-0 renal) was 52.9 µM, the TGI (A498 renal) was over 56.6 µM and the TGI (A549 NSCLC) was over 100 µM. For the same molecule, the TGI (ACHN renal) was over 100 µM, the TGI (CAKI-1 renal) was over 87 µM and the TGI (CCRF-CEM leukemia) was over 88 µM. For the same molecule, the TGI (COLO 205 colon) was 25.7 µM, the TGI (DLD-1 colon) was over 100 µM and the TGI (DMS 114 small cell lung) was 52.8 µM. The TGI (DMS 273 small cell lung) was over 47.5 µM, the TGI (EKVX NSCLC) was over 61.3 µM and the TGI (HCC-2998 colon) was 28.1 µM. For the same molecule, the TGI (HCT-116 colon) was 17.1 µM, the TGI (HCT-15 colon) was 61.1 µM and the TGI (HL-60(TB) leukemia) was 19 µM. The TGI (HOP-18 NSCLC) was over 74.6 µM, the TGI (HOP-62 NSCLC) was 49.8 µM and the TGI (HOP-92 NSCLC) was 72.3 µM. For the same molecule, the TGI (HT29 colon) was over 39.3 µM, the TGI (IGROV1 ovarian) was over 100 µM and the TGI (K-562 leukemia) was over 37.8 µM. The TGI (KM12 colon) was 38 µM, the TGI (KM20L2 colon) was 29.8 µM and the TGI (LOX IMVI melanoma) was over 100 µM. For the same molecule, the TGI (LXFL 529 NSCLC) was over 100 µM, the TGI (M14 melanoma) was 87.6 µM and the TGI (M19-MEL melanoma) was over 71.5 µM. It also gave a TGI (MALME-3M melanoma) of 76.2 µM, a TGI (MOLT-4 leukemia) of 15.6 µM and a TGI (NCI-H226 lung) of 56.6 µM. The TGI (NCI-H23 lung) was over 81.2 µM, the TGI (NCI-H460 lung) was 49.4 µM and the TGI (NCI-H522 lung) was 46.1 µM. For the same molecule, the TGI (OVCAR-3 ovarian) was 26.4 µM, the TGI (OVCAR-4 ovarian) was 87.1 µM and the TGI (OVCAR-5 ovarian) was over 75.1 µM. The TGI (OVCAR-8 ovarian) was 98.3 µM, the TGI (RPMI-8226 leukemia) was 20.8 µM and the TGI (RXF 393 renal) was 54.6 µM. For the same molecule, the TGI (RXF-631 renal) was over 75.4 µM, the TGI (SF-268 CNS) was 31.2 µM and the TGI (SF-295 CNS) was 40.2 µM. For the same molecule, the TGI (SF-539 CNS) was 31.9 µM, the TGI (SK-MEL-2 melanoma) was 64.2 µM and the TGI (SK-MEL-28 melanoma) was 48 µM. The TGI (SK-MEL-5 melanoma) was 20.4 µM, the TGI (SK-OV-3 ovarian) was over 89.9 µM and the TGI (SN12C renal) was 71.8 µM. For the same molecule, the TGI (SNB-19 CNS) was over 100 µM, the TGI (SNB-75 CNS) was 39.5 µM and the TGI (SR leukemia) was over 100 µM. For the same molecule, the TGI (SW-620 colon) was over 100 µM, the TGI (TK-10 renal) was over 100 µM and the TGI (U251 CNS) was 30.7 µM. For the same molecule, the TGI (UACC-257 melanoma) was over 95.5 µM, the TGI (UACC-62 melanoma) was over 72.1 µM and the TGI (UO-31 renal) was 80.1 µM. It also gave a TGI (XF 498 CNS) of 65.9 µM.
